{
  "source": "patent US20240408223A1",
  "about": "(REGENERON PHARMACEUTICALS, INC., priority 2017, published 2024)",
  "key": {"[1]": {"assay": "pH stability in buffers, determined by LC-MS", "format": "physicochemical", "details": "pH7.4 and 8 buffer, RT, Table 3-1", "method": "pH stability was assessed as follows. 0.1 mg of sample was dissolved into 0.2-0.3 mL of DMSO, and the resulting solution was added dropwise into different pH buffers (1 mL) while maintain clear solutions during testing time period. The samples were collected from several time points (e.g., over 72 hours), and pH stability was determined by LC-MS. pH buffer was prepared as follows: pH 8.0 sodium borate buffer: Add 9.534 g Sodium borate decahydrate, 1.461 g Sodium chloride, and 0.393 g DTPA to 900 mL distilled water, make sure all powers dissolve completely, then make final volume to 1 L by adding water. pH 7.4 sodium borate buffer: Add […], 9.534 g Sodium borate decahydrate, 1.461 g Sodium chloride, and 0.393 g DTPA to 900 mL distilled water, make sure all powers dissolve completely, then make final volume to 1 L by adding water. pH 5.0 succinate acid buffer: Add 10 mM succinate acid to 150 mL distilled water, and then change the pH to pH5.0 by adding 0.5M NaOH, then make final volume to 250 mL by adding water. pH 7.4 PBS buffer: commercially available. Stability was assessed at 72 hours by LCMS."}, "Human liver Cathepsin B": {"molecular_target": "Human liver Cathepsin B (Homo sapiens, UniProt P07858)", "assay": "Cathepsin B cleavage assay of linker-payloads", "details": "Table 1D", "quoted_text": "For the assay, the linker-payload stock solution (10 mM of linker-payload in DMSO) was added into a solution of 100 mM NaOAc, 10 mM dithiothreitol, at pH5 to obtain a 50 μM substrate solution. […] The Cathepsin B and substrate solution was mixed with and without 10 mM of a Cathepsin B inhibitor (CA074; APE Bio, Cat #A1926), and incubated at 37° C. for 4 hours. Following the 4 hour incubation, acetic acid and then acetonitrile were added to stop the reaction. The quenched samples then underwent centrifugation at 14,000 rpm. Aliquots of the resultant supernatants were then diluted with equal volume of water and analyzed by LC/MS to determine the amount of payload released."}},
  "note": "Where two headings read alike, the source gives them in different places. *1 amine or outer side, *2 acyl side, *3 side chain or, on linkers, in order; H or OH if unused. Where a SMILES comes first, the peptide text is derived from it. [ ]: non-standard residue; d: D form. The star is where a group is joined. X2 = O=C(COC1CCCCCc2c1nnn2[C@@H]1O[C@H](CO)[C@H](O)[C@H](O)[C@H]1O)*; NH(1-deoxy-D-glucityl) = OC[C@@H](O)[C@@H](O)[C@H](O)[C@@H](O)CN*; Dolaproine = CO[C@@H]([C@@H]1CCCN1)[C@@H](C)C(=O)O; X3 = O=C(COC1CCCCCc2c1nnn2CCOCCOCCOCCOCCOCCO)*; Dil = CC[C@H](C)[C@H](NC)[C@@H](CC(=O)O)OC; PABC = O=C(OCc1ccc(N[*:1])cc1)[*:2]; DBCO = C1#Cc2ccccc2N(*)Cc2ccccc21; X1 = C[C@@H](N*)[C@@H](O)c1ccccc1; Cit = NC(=O)NCCC[C@H](N)C(=O)O; PEG4 = NCCOCCOCCOCCOCCC(=O)O; Suc = O=C(CCC(=O)[*:2])[*:1]; NMeV = CN[C@H](C(=O)O)C(C)C",
  "data": [
    {"molecule": "CC[C@H](C)[C@@H]([C@@H](CC(=O)N1CCC[C@H]1[C@H](OC)[C@@H](C)C(=O)N[C@H](C)[C@@H](O)c1ccccc1)OC)N(C)C(=O)[C@@H](NC(=O)[C@H](C(C)C)N(C)C(=O)OCc1ccc(NC(=O)[C@H](CCCNC(N)=O)NC(=O)[C@@H](NC(=O)[C@@H](CCCCNC(=O)COC2CCCCCc3c2nnn3CCOCCOCCOCCOCCOCCO)NC(=O)CCOCCOCCOCCOCCNC(=O)CCC(=O)N2Cc3ccccc3C#Cc3ccccc32)C(C)C)cc1)C(C)C", "note": "(some centres unmarked) [1a] ({DBCO-Suc-PEG4}-[dK](X3)V[Cit][PABC][NMeV]V[Dil][Dolaproine]-X1)", "values": [
      {"measurement": "solubility", "setting": "physchem", "result": 170, "unit": "µg/mL"},
      {"measurement": "pH Stability", "setting": "[1]", "result": "Y (stable in pH7.4 and 8 buffer at RT for more than 3 days)"}
    ]},
    {"molecule": "CCCC1O[C@@H]2C[C@H]3[C@@H]4C[C@H](F)C5=CC(=O)C=C[C@]5(C)[C@@]4(F)[C@@H](O)C[C@]3(C)[C@]2(C(=O)COc2ccc(NC(=O)OCc3ccc(NC(=O)[C@H](CCCNC(N)=O)NC(=O)[C@@H](NC(=O)CCOCCOCCOCCOCCNC(=O)CCC(=O)N4Cc5ccccc5C#Cc5ccccc54)C(C)C)cc3)cc2)O1", "note": "(some centres unmarked) [10c]", "values": [
      {"measurement": "solubility", "setting": "physchem; Solubility", "result": "< 10", "unit": "µg/mL"},
      {"measurement": "solubility", "setting": "physchem; Solubility (mg/mL)", "result": "< 100", "unit": "µg/mL"},
      {"measurement": "CapB cleavage rate (%) at 4 hrs", "setting": "Human liver Cathepsin B", "result": "<5", "unit": "%"},
      {"measurement": "pH Stability", "setting": "[1]", "result": "Y (stable in pH7.4 and 8 buffer at RT for more than 3 days)"}
    ]},
    {"molecule": "CC[C@H](C)[C@@H]([C@@H](CC(=O)N1CCC[C@H]1[C@H](OC)[C@@H](C)C(=O)N[C@H](C)[C@@H](O)c1ccccc1)OC)N(C)C(=O)[C@@H](NC(=O)[C@H](C(C)C)N(C)C(=O)OCc1ccc(NC(=O)[C@H](CCCNC(N)=O)NC(=O)[C@@H](NC(=O)CCOCCOCCOCCOCCNC(=O)CCC(=O)N2Cc3ccccc3C#Cc3ccccc32)C(C)C)cc1)C(C)C", "note": "[10d] ({DBCO-Suc-PEG4}-V[Cit][PABC][NMeV]V[Dil][Dolaproine]-X1)", "values": [
      {"measurement": "solubility", "setting": "physchem", "result": "< 100", "unit": "µg/mL"},
      {"measurement": "pH Stability", "setting": "[1]", "result": "Y (stable in pH7.4 and 8 buffer at RT for more than 3 days)"}
    ]},
    {"molecule": "CC[C@H](C)[C@@H]([C@@H](CC(=O)N1CCC[C@H]1[C@H](OC)[C@@H](C)C(=O)N[C@H](C)[C@@H](O)c1ccccc1)OC)N(C)C(=O)[C@@H](NC(=O)[C@H](C(C)C)N(C)C(=O)OCc1ccc(NC(=O)[C@H](CCCNC(N)=O)NC(=O)[C@@H](NC(=O)[C@@H](CCCCNC(=O)COC2CCCCCc3c2nnn3[C@@H]2O[C@H](CO)[C@H](O)[C@H](O)[C@H]2O)NC(=O)CCOCCOCCOCCOCCNC(=O)CCC(=O)N2Cc3ccccc3C#Cc3ccccc32)C(C)C)cc1)C(C)C", "note": "(some centres unmarked) [Ie-1] ({DBCO-Suc-PEG4}-[dK](X2)V[Cit][PABC][NMeV]V[Dil][Dolaproine]-X1)", "values": [
      {"measurement": "solubility", "setting": "physchem", "result": 400, "unit": "µg/mL"},
      {"measurement": "CapB cleavage rate (%) at 4 hrs", "setting": "Human liver Cathepsin B", "result": 72, "unit": "%"},
      {"measurement": "pH Stability", "setting": "[1]", "result": "Y (stable in pH7.4 and 8 buffer at RT for more than 3 days)"}
    ]},
    {"molecule": "CC[C@H](C)[C@@H]([C@@H](CC(=O)N1CCC[C@H]1[C@H](OC)[C@@H](C)C(=O)N[C@H](C)[C@@H](O)c1ccccc1)OC)N(C)C(=O)[C@@H](NC(=O)[C@H](C(C)C)N(C)C(=O)OCc1ccc(NC(=O)[C@H](CCCNC(N)=O)NC(=O)[C@@H](NC(=O)[C@@H](CCC(=O)NC[C@H](O)[C@@H](O)[C@H](O)[C@H](O)CO)NC(=O)CCOCCOCCOCCOCCNC(=O)CCC(=O)N2Cc3ccccc3C#Cc3ccccc32)C(C)C)cc1)C(C)C", "note": "[Ig] ({DBCO-Suc-PEG4}-[dE](NH(1-deoxy-D-glucityl))V[Cit][PABC][NMeV]V[Dil][Dolaproine]-X1)", "values": [
      {"measurement": "solubility", "setting": "physchem", "result": 280, "unit": "µg/mL"},
      {"measurement": "CapB cleavage rate (%) at 4 hrs", "setting": "Human liver Cathepsin B", "result": 70, "unit": "%"},
      {"measurement": "pH Stability", "setting": "[1]", "result": "Y (stable in pH7.4 and 8 buffer at RT for more than 3 days)"}
    ]}
  ]
}
